Structures can show the parent of a compound that is named as a salt.
Target: α7 nAChR (Rattus norvegicus (Rat), UniProt Q05941)
Assay: [3H]-methyllycaconitine binding assay, rat brain membranes
Conditions: inhibition of [3H]-methyllycaconitine binding to rat brain membranes; Ki=IC50/(1+L/KD)
Procedure: 1. Determination of the Affinity of Test Substances for α7 nAChR by Inhibition of [^3H]-methyllycaconitine Binding to Rat Brain Membranes
The [^3H]-methyllycaconitine binding assay is a modification of the method described by Davies et al. (Neuropharmacol. 1999, 38, 679-690).
Rat brain tissue (hippocampus or whole brain) is homogenized in homogenization buffer (10% w/v) (0.32 M sucrose, 1 mM EDTA, 0.1 mM phenylmethylsulfonyl fluoride (PMSF), 0.01% (w/v) NaN3, pH 7.4, 4° C.) at 600 rpm in a glass homogenizer. The homogenate is centrifuged (1000×g, 4° C., 10 min) and the supernatant is removed. The pellet is resuspended (20% w/v) and the suspension is centrifuged (1000×g, 4° C., 10 min) The two supernatants are combined and centrifuged (15 000×g, 4° C., 30 min). This pellet is referred to as the P2 fraction.
The P2 pellet is washed twice with binding buffer (50 mM Tris-HCl, 1 mM MgCl2, 120 mM NaCl, 5 mM KCl, 2 mM CaCl2, pH 7.4), and centrifuged (15 000×g, 4° C., 30 min).
The P2 membranes are resuspended in binding buffer and incubated in a volume of 250 μl (amount of membrane protein 0.1-0.5 mg) in the presence of 1-5 nM [^3H]-methyllycaconitine, 0.1% (w/v) BSA (bovine serum albumin) and various concentrations of the test substance at 21° C. for 2.5 h. The non-specific binding is determined by incubation in the presence of 1 μM […]-bungarotoxin or 100 μM nicotine or 10 μM MLA (methyllycaconitine).
The incubation is stopped by adding 4 ml of PBS (20 mM Na2HPO4, 5 mM KH2PO4, 150 mM NaCl, pH 7.4, 4° C.) and filtering through type A/E glass fiber filters (Gelman Sciences) which have previously been placed in 0.3% (v/v) polyethyleneimine (PEI) for 3 h. The filters are washed twice with 4 ml of PBS (4° C.), and the bound radioactivity is determined by scintillation measurement. All the assays are carried out in triplicate. The dissociation constant Ki of the test substance was determined from the IC50 of the compounds (concentration of the test substance at which 50% of the ligand bound to the receptor are displaced), the dissociation constant KD and the concentration L of [^3H]methyllycaconitine (Ki=IC50/(1+L/KD)).

Sequence of α7 nAChR (Q05941 23-502 limits assumed): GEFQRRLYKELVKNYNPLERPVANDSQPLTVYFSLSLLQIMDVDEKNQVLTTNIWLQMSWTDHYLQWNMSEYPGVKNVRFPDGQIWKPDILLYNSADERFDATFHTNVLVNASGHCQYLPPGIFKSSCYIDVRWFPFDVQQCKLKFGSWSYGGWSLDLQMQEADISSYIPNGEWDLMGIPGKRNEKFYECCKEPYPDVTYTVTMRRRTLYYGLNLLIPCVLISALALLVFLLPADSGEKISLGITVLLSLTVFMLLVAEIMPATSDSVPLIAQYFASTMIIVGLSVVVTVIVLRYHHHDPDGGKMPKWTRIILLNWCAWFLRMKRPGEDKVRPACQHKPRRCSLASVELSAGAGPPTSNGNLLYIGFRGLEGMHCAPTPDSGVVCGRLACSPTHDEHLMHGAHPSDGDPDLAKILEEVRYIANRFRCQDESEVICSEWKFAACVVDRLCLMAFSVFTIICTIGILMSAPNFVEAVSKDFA

SMILES | Ki [nM]
NS(=O)(=O)c1ccc(-c2ccc(NC(=O)[C@H]3CN4CCC3CC4)cc2)cc1 [Example 7, (3R)—N-[4′-(Aminosulfonyl)biphenyl-4-yl]quinuclidine-3-carboxamide hydrochloride] | < 1
CS(=O)(=O)Nc1ccc(-c2ccc(NC(=O)[C@H]3CN4CCC3CC4)cc2)cc1 [Example 2, (3R)-N-{4′-[(Methylsulfonyl)amino]biphenyl-4-yl}quinuclidine-3-carboxamide hydrochloride] | 2
O=C(Nc1ccc(-c2ccc(NS(=O)(=O)c3ccccc3)cc2)cc1)[C@H]1CN2CCC1CC2 [Example 5, (3R)—N-{4′-[(Phenylsulfonyl)amino]biphenyl-4-yl}quinuclidine-3-carboxamide hydrochloride] | < 1
O=C(Nc1ccc(-c2ccc(NC(=O)[C@H]3CN4CCC3CC4)cc2)cc1)NC1CCCC1 [Example 11, (3R)—N-(4′-{[(Cyclopentylamino)carbonyl]amino}biphenyl-4-yl)quinuclidine-3-carboxamide hydrochloride] | 16
O=C(Nc1ccc(-c2ccc(NC(=O)[C@H]3CN4CCC3CC4)cc2)cc1)c1cccc(F)c1 [Example 15, (3R)—N-{4′-[(3-Fluorobenzoyl)amino]biphenyl-4-yl}quinuclidine-3-carboxamide hydrochloride] | 27

From US8691840B2, “N-biarylamides” (Bayer Intellectual Property GmbH, priority 2003, dated 2014)
